# Measured values from the pKa sets of Baltruschat and Czodrowski (2020).
# Values joined by “and” are separate entries in the source; they are usually repeats but may differ in a detail not shown here. Equal values may be shown once.
# Conditions: basic group
row,Structure (SMILES),pKa
1,CN(C)c1ncc(-c2ccccc2)s1,4.89
2,C[C@H]1CCCC[C@@H]1N,10.6
3,C[NH+]1CCCC1c1ccc(Cl)nc1 (configuration not stated),-1.3
4,Nc1ccc([N+](=O)[O-])c2ccccc12,0.53
5,NCCCCCc1cccnc1,10.3
6,COc1cc(S(C)=O)ccc1-c1nc2ncc(N)cc2[nH]1 (configuration not stated),3.9
7,Oc1ccc2nc3ccccc3nc2c1,2.6
8,CC(=O)N1CCNc2ncnc(C)c21,5.26
9,Cc1ccc(C(=O)O)s1,-0.57
10,CNC(C)C(=O)[O-] (configuration not stated),10.2
11,CCc1cc(-c2ccccc2)nnc1NCC[NH+]1CCOCC1,4.37
12,Cc1ccc(CON)cc1,4.4
13,CNc1nc(C)nc2c1cnn2C,5
14,CSc1nccc(C)n1,1.95
15,Oc1onc2c1CCN(Cc1ccccc1)CC2,8
16,Clc1ccc(-c2ccc(Cl)cn2)nc1,3.96
17,[NH3+]CCc1cnc[nH]1,6.28
18,Cc1cccnc1C,6.57
19,NCCCCCCCCCCC(=O)[O-],11
20,NC(C[NH3+])C[NH3+],3.72
21,CC/C=C/Cc1nccn1[C@H](C(=O)[O-])C(C)(C)S,7.2
22,CC(C)(C)CC(=O)n1cnc(Br)c1,4

row,Structure (SMILES),pKa
1,CCN(CC)CCNc1cc(C)nc(N)n1,9.55
2,Nc1ncc2[nH]c(-c3ccccc3)nc2n1,3.98
3,COc1c(Br)cccc1C(=O)N[C@@H]1C[C@H]2CC[C@@H](C1)N2Cc1ccccc1,8.73
4,Nc1ccccc1F,2.96
5,Nc1ccnc2c1ncn2CCOCP(=O)(O)O,5.49
6,Cc1ccc(C)nc1,6.4
7,S=C1NC(=S)C(c2ccccc2)N1 (configuration not stated),-3.16
8,CNCc1ccc(C)cc1,9.93
9,NCc1ccc(Cl)c(N)c1,9.33
10,COc1ccc(O)c(CN(C)C)c1,8.7
11,ONc1ccc(Cl)cc1,2.58
12,C=C(C)[C@H]1CN[C@H](C(=O)[O-])[C@H]1CC(N)=O,9.47
13,CCCCC(N)C(=O)[O-] (configuration not stated),9.89
14,CCN(CC)CC[NH+](CC)CC,6.18
15,O=C(CCCCN1CCOCC1)c1ccccc1,7.5
16,Nc1ccc(F)cc1,4.64
17,Cc1ccccc1C(=NCCCC[NH+](C)C)c1ccccc1C,5.18
18,c1ccc(C(CCN2CCCCC2)c2ccccc2)cc1,8.96
19,CN(C)CCN(C)CCN(C)C,9.55 and 9.4
20,Cc1c[nH]c(C)c1C,3.94
21,Cc1ccccn1,5.98
22,CN1CCCC1c1cncc2[nH]c3ccccc3c12 (configuration not stated),8.02

row,Structure (SMILES),pKa
1,O=[N+]([O-])c1ccc([O-])c(CN2CCOCC2)c1,7.92
2,CCN(CC)CCC(OC(=O)c1ccccc1)c1ccccc1 (configuration not stated),7.53
3,NNC(=O)c1cc[nH+]cc1,1.67
4,C/C(N)=N/N(C)C,10
5,C[C@@H](C=C(c1ccccc1)c1ccccc1)N(C)C,9.26
6,C[C@H]([C@H](O)c1ccccc1)N(C)C,10
7,CN1CC=CC1c1cccnc1 (configuration not stated),7.04
8,CN(C)CCc1ccc(O)cc1,9.8
9,Cn1c2ccccc2c(=N)c2ccccc21,11
10,c1cnc2c(c1)c1c(c3cccnc32)CCCC1,5.3
11,CSc1ccc(N)c(Cl)c1,2.56
12,[NH3+]CCCc1ccccn1,4.98
13,O=C([O-])/C=C\c1c[nH]cn1,6.7
14,Nc1nc(N)nc(N)n1,5.06
15,CCCCCC(C)NC (configuration not stated),11
16,CNC(=N)N,13.4
17,Fc1cc2nc[nH]c2cc1Cl,4.33
18,CC1=NCCCC1,9.57
19,Cc1nnc(C)c(C)n1,2.85
20,CCOCCn1c(CN2CC[NH+](CCCCn3cccn3)CC2)nc2ccccc21,4.8
21,CC(C)NC[Si](C)(C)C,10.8
22,CCCCCCCCCCCCCCCCCCNCCCCCCCCCCCCCCCCCC,11

row,Structure (SMILES),pKa
1,[SH2+]c1cccc2ncccc12,3.31
2,COc1ccc(S(=O)(=O)CCN2CCCCC2)c(OC)c1OC,7.24
3,Nc1cccc2nn([C@@H]3C[C@@H](O)[C@H](CO)O3)nc12,2.4
4,Oc1ccc2ncncc2c1,3.12
5,C(=C\C=N\c1ccccc1)/C=C/Nc1ccccc1,8.52
6,Cc1cc(-c2ccccc2)nn2cc(CN3CCOCC3)nc12,6.3
7,Oc1ccc2[nH]cnc2c1,5.69
8,N[C@H]1CCCC[C@@H]1N,9.75
9,c1ccc(-c2nc3cnccc3[nH]2)cc1,6
10,Cc1ccc(C(O)CN)cc1 (configuration not stated),9.06
11,N#CCN1CCCCC1,4.55
12,CC[C@]12CCCN3CC[C@@]4(c5cccc(OC)c5N(C(C)=O)[C@H]4CC1)[C@@H]32,7.57
13,C[C@H]1CC[C@@H]2CCCN21,11.7
14,O=[N+]([O-])c1ccc2[nH]c(C(F)(F)Cl)nc2c1,0.77
15,Cc1cc(N)ccn1,9.44
16,CCCCCCCCCCCCCCCC[NH+](CCCCCCCCCCCCCCCC)CCn1ccnc1,4
17,OCCN(CCc1nnn[n-]1)CCc1nnn[n-]1,8.9
18,c1ccc(-c2nc3ncncc3[nH]2)cc1,2.68
19,C#CCN1CCN(C(=O)OCC)CC1,5.44
20,OCCNC1CC[NH+](Cc2ccccc2)CC1,6.67
21,Cc1ccc(C)c(NN=C(C#N)C#N)c1,-0.84
